Laboratory results as given in ChEMBL document CHEMBL5291721, “A preclinical secondary pharmacology resource illuminates target-adverse drug reaction associations of marketed drugs” (Nat Commun, 2023).

Legend:
[1] = target: T1, Alpha-1A adrenergic receptor (Homo sapiens, UniProt P35348); assay type: functional, cell-based
T1 sequence (P35348 whole entry): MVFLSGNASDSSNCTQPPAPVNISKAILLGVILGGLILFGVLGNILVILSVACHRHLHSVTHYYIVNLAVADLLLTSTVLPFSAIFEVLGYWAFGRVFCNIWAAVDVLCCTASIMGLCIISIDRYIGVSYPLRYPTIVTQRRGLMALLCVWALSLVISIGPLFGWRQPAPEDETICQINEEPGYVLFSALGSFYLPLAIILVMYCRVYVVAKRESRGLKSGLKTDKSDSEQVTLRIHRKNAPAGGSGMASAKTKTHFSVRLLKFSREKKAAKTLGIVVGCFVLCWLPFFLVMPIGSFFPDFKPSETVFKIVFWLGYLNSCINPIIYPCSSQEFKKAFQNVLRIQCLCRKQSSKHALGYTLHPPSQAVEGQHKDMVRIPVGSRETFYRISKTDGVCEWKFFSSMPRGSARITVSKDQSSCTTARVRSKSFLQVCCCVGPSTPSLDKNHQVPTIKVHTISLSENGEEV

[2] = target: T1, Alpha-1A adrenergic receptor; assay type: functional, cell-based; remark: listed apart in the source
[3] = target: T2, Muscarinic acetylcholine receptor M1 (Homo sapiens, UniProt P11229); assay type: functional, cell-based
T2 sequence (P11229 whole entry): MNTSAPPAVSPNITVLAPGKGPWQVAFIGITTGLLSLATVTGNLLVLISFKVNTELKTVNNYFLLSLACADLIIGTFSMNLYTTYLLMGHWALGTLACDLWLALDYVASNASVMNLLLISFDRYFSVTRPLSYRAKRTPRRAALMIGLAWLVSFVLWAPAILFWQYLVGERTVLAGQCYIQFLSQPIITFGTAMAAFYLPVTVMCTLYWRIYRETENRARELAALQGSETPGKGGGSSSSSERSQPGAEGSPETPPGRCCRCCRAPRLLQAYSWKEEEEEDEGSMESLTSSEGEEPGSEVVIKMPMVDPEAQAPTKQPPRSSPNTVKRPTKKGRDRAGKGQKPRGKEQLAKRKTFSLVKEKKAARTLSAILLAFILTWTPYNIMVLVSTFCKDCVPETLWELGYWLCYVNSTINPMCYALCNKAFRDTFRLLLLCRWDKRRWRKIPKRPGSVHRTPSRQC

[4] = target: Gamma-aminobutyric acid receptor subunit alpha-1 (Rattus norvegicus, UniProt P62813)
[5] = target: 3',5'-cyclic-AMP phosphodiesterase 4D (Homo sapiens, UniProt Q08499); assay type: functional
[6] = target: Prostaglandin G/H synthase 1 (Homo sapiens, UniProt P23219); assay type: functional
Adenosine receptor A2a = Adenosine receptor A2a (Homo sapiens, UniProt P29274)
[7] = target: T3, Gastrin/cholecystokinin type B receptor (Homo sapiens, UniProt P32239)
T3 sequence (P32239 whole entry): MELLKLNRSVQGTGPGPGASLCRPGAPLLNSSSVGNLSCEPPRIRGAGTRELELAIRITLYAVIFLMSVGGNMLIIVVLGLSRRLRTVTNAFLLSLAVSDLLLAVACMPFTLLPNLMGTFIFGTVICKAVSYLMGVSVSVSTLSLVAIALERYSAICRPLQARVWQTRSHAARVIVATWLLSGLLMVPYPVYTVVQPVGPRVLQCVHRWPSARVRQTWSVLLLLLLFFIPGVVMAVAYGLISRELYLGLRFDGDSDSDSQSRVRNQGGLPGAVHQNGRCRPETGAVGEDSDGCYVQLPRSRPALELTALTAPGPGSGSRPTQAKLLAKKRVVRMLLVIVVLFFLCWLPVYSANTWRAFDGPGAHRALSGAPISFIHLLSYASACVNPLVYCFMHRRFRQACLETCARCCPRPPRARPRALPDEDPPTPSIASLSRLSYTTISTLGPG

[8] = target: T4, 5-hydroxytryptamine receptor 1A (Homo sapiens, UniProt P08908); assay type: functional, cell-based
T4 sequence (P08908 whole entry): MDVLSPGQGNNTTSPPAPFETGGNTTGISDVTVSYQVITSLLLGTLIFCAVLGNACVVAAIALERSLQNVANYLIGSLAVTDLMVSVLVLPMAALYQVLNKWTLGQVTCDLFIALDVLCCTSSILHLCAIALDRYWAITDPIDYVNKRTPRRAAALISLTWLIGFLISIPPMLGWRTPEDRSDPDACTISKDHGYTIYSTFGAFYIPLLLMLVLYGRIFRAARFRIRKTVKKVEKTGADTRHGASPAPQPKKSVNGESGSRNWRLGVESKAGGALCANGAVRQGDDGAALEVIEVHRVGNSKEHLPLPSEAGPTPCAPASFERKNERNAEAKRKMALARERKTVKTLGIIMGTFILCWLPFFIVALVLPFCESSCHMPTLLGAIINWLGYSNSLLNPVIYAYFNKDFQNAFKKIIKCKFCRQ

[9] = target: 5-hydroxytryptamine receptor 2B (Homo sapiens, UniProt P41595); assay type: functional, cell-based
[10] = target: T5, Neuropeptide Y receptor type 1 (Homo sapiens, UniProt P25929)
T5 sequence (P25929 whole entry): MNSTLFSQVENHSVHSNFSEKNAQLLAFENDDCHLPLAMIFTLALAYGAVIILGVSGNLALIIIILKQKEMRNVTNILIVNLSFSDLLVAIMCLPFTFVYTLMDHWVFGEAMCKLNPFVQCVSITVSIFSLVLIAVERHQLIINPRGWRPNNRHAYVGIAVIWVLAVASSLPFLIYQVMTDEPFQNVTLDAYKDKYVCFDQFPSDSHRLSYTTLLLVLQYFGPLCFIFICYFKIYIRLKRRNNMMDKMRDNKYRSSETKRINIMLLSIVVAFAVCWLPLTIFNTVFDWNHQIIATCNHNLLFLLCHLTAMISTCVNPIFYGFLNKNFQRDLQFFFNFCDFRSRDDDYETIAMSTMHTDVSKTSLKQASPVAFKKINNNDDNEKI

[11] = target: Delta-type opioid receptor (Homo sapiens, UniProt P41143)
Mu-type opioid receptor = Mu-type opioid receptor (Homo sapiens, UniProt P35372)
Further: assay procedure not described here.

Sequence of Gamma-aminobutyric acid receptor subunit alpha-1 (P62813 whole entry): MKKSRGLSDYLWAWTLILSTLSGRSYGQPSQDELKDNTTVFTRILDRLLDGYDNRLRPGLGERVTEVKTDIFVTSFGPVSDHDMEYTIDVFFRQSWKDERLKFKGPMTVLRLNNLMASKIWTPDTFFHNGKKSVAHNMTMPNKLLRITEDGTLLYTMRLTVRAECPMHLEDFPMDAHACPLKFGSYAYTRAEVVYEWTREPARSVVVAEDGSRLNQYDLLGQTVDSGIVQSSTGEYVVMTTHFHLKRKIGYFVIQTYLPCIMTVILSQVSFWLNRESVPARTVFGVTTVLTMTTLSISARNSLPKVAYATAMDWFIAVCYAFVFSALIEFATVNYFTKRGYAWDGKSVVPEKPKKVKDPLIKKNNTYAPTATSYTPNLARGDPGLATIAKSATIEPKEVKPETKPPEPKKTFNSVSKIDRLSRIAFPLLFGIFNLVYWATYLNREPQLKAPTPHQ
Sequence of 3',5'-cyclic-AMP phosphodiesterase 4D (Q08499 whole entry): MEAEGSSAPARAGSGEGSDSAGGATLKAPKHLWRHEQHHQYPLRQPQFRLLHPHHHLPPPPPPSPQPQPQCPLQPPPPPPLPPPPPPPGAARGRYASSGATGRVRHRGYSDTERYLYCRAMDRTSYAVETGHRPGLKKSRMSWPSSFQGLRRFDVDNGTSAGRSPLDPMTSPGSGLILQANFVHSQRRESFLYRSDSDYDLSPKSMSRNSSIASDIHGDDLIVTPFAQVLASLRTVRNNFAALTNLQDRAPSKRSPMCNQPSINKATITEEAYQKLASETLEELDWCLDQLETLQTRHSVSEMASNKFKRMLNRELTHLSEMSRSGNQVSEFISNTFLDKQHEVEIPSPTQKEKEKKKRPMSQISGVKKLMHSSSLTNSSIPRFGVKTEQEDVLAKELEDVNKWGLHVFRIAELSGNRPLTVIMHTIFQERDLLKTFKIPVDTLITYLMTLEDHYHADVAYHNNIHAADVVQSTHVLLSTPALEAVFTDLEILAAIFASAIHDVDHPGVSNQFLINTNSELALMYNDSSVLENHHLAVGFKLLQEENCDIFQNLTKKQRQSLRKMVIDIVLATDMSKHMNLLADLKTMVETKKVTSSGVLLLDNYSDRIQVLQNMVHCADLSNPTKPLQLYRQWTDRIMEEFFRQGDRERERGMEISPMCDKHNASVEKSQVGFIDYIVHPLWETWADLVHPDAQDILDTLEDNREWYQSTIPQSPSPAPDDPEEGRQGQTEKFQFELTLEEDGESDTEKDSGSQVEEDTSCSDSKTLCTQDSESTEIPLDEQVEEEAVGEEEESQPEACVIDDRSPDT
Sequence of Prostaglandin G/H synthase 1 (P23219 whole entry): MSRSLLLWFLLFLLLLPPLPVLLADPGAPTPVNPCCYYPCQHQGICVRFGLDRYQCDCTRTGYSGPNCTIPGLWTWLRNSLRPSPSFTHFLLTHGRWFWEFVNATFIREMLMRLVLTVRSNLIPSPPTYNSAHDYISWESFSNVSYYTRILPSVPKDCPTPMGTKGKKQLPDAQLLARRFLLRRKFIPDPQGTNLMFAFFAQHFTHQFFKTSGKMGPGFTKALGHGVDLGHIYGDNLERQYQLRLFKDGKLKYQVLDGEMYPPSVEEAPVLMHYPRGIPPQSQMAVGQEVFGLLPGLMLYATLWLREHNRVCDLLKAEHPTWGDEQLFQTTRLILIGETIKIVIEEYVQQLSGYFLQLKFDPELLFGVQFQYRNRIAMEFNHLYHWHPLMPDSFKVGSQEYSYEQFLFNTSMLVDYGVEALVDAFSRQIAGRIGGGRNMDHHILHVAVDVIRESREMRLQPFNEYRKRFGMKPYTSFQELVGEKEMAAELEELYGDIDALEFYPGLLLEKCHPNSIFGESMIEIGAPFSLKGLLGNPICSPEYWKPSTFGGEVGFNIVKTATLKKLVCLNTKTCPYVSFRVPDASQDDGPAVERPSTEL
Sequence of Mu-type opioid receptor (P35372 whole entry): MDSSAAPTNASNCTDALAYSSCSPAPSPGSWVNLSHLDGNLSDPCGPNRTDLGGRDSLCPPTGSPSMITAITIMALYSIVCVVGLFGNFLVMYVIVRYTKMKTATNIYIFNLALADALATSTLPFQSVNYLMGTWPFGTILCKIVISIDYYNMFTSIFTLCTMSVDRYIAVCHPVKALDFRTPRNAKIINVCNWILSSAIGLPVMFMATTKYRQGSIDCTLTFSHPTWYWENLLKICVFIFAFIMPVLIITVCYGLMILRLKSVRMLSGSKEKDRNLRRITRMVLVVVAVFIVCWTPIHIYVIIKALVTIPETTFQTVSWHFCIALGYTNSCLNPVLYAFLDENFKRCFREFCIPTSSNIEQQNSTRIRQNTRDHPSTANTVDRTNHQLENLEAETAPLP
Sequence of 5-hydroxytryptamine receptor 2B (P41595 whole entry): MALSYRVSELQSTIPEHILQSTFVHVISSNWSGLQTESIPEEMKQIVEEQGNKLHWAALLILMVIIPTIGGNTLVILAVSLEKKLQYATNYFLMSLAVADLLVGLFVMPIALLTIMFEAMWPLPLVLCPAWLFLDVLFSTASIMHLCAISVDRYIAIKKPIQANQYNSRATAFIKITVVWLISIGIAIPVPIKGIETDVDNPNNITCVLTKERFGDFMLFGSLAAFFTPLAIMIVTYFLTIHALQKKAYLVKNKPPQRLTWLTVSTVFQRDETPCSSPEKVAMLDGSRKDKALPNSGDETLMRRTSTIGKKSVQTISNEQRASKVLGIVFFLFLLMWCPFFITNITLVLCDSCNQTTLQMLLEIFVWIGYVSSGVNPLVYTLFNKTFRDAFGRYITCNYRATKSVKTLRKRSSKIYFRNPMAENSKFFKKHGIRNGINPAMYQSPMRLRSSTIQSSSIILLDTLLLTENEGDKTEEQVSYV
Sequence of Delta-type opioid receptor (P41143 whole entry): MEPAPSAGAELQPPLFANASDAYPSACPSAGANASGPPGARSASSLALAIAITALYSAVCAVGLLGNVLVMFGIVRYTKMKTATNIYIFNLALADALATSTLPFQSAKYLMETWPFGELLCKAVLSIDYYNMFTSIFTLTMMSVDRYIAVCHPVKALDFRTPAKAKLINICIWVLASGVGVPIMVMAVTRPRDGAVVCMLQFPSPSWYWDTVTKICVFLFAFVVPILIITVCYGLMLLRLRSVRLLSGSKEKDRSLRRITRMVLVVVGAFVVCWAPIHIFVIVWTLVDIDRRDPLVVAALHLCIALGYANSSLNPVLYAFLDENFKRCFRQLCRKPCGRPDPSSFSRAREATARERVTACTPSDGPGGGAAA
Sequence of Adenosine receptor A2a (P29274 whole entry): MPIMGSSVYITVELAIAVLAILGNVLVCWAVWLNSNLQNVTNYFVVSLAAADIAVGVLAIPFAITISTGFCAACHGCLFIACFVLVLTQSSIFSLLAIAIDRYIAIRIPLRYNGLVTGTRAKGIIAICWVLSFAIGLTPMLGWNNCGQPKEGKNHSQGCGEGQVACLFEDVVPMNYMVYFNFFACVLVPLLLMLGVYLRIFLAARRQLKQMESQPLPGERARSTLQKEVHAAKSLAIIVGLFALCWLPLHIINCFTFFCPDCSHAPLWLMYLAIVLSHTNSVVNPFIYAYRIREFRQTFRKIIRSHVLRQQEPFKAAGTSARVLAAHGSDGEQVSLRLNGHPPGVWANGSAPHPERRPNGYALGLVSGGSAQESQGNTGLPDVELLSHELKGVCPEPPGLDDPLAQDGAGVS

Row | SMILES | AC50 [1] | AC50 [2] | AC50 [3] | AC50 [4] | AC50 [5] | AC50 [6] | AC50 (Adenosine receptor A2a) | AC50 [7] | AC50 [8] | AC50 [9] | AC50 [10] | AC50 [11] | AC50 (Mu-type opioid receptor)
1 | N#Cc1ccc(Oc2ccc3c(c2)COB3O)cc1 [CRISABOROLE] | > 30 µM | 4.32 µM | > 30 µM | > 30 µM | 0.8 µM | > 30 µM | – | – | – | – | – | – | –
2 | C[C@@H]1C[C@H]2[C@@H]3C[C@H](F)C4=CC(=O)C=C[C@]4(C)[C@@]3(F)[C@@H](O)C[C@]2(C)[C@@]1(OC(=O)c1ccco1)C(=O)SCF [FLUTICASONE FUROATE] | > 30 µM | > 30 µM | > 30 µM | > 30 µM | > 30 µM | 9.89 µM | > 10 µM | > 10 µM | > 10 µM | > 10 µM | > 10 µM | > 30 µM | > 30 µM
